Data taken from paper PMC6948153 (ACS chemical biology, 2019).
Entries after “also recorded” stand apart in the source; their conditions may differ. Where two headings read alike, the source gives them in different places.

How the values were obtained:
RhlI [1] = target: T1, RhlI (Pseudomonas aeruginosa, UniProt P54291); assay: RhlI enzymatic assay; format: biochemical; settings: for effect on RhlI activity (inhibition / activation): initial rate with increasing concentrations of compound
RhlI [2] = target: T1, RhlI; assay: Inhibition of RhlI by inert alkyl-ACP / alkyl-CoA substrate analogs; format: biochemical; settings: for effect of preincubation of RhlI with inhibitor on % inhibition or IC50: inhibition neither slow-binding nor time-dependent; for inhibition mode: substrate-velocity measurements at different alkyl-ACP concentrations
tag-free RhlI = tag-free RhlI (Pseudomonas aeruginosa, UniProt P54291); assay: Km and IC50 with tag-free RhlI; format: biochemical
RhlI [3] = target: T1, RhlI; assay: Substrate kinetics of acyl-ACPs with RhlI; format: biochemical; settings: acyl-ACP substrate with RhlI
RhlI [4] = target: T1, RhlI; settings: N-butyryl L-homoserine lactone even at 1 mM; ref 21 (Parsek et al.); cited from earlier work
[5] = inert substrate analog with RhlI

T1 sequence (P54291 whole entry): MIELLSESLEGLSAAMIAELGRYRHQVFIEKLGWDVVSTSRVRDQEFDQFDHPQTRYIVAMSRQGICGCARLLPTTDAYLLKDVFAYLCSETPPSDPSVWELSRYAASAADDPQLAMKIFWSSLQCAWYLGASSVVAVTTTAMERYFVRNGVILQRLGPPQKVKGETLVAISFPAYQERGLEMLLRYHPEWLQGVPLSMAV
tag-free RhlI, sequence (P54291 whole entry): as above

With `CCCCCCCCCCCC(=O)N[C@@H]1CCSC1=O` [compound 60, C12-D-homocysteine thiolactone] the IC50 (RhlI [1]) was 11 ± 1 µM and the “fold lower IC50 than L-thiolactone counterpart compound 46” value (RhlI [1]; IC50 of 60 versus IC50 of 46) was “about 34 fold”.
With octyl-ACP [compound 87] the IC50 (RhlI [2]; [5]) was 0.06 ± 0.02 µM, the Ki (RhlI [2]; [5]) was 6.5 ± 0.7 µM and the “effect of preincubation of RhlI with inhibitor on % inhibition or IC50” value (RhlI [2]) was “did not significantly alter”. The inhibition mode (RhlI [2]) was “noncompetitive” and the “IC50 with untagged RhlI compared with MBP-tagged enzyme” value (tag-free RhlI) was “almost identical”.
With butyl-ACP [compound 85] the IC50 (RhlI [2]; [5]) was 9.9 ± 4 µM, the Ki (RhlI [2]; [5]) was 15.9 ± 0.9 µM and the “effect of preincubation of RhlI with inhibitor on % inhibition or IC50” value (RhlI [2]) was “did not significantly alter”. The inhibition mode (RhlI [2]) was “noncompetitive” and the “IC50 with untagged RhlI compared with MBP-tagged enzyme” value (tag-free RhlI) was “almost identical”.
With `N[C@H]1CCSC1=O` [compound 73, L-HCTL] the “effect on RhlI activity (inhibition / activation)” value (shortened to “effect … (inhibition / activation)”) (RhlI [1]) was “None of these compounds or combinations had any effect on RhlI activity”.
For hexanoyl-ACP [compound 81], the Km (RhlI [3]) was 1.2 ± 0.2 µM and the kcat (RhlI [3]) was 0.0143 ± 0.00033 s⁻¹.
With `N[C@@H]1CCOC1=O` [compound 72, D-HSL] the “effect … (inhibition / activation)” value (RhlI [1]) was “None of these compounds or combinations had any effect on RhlI activity”.
For `CCCC(=O)N[C@H]1CCSC1=O` [compound 8, C4-L-HCTL], the “effect … (inhibition / activation)” value (RhlI [1]) was “failed to inhibit; also recorded: did not inhibit”.
For hexyl-ACP [compound 86], the IC50 (RhlI [2]; [5]) was 0.7 ± 0.4 µM, the Ki (RhlI [2]; [5]) was 10.6 ± 1.1 µM and the inhibition mode (RhlI [2]) was “noncompetitive”.
`O=C(CCCc1ccccc1)N[C@@H]1CCOC1=O` [compound 31, 4-phenylbutanoyl-D-HSL] showed an IC50 (RhlI [1]) of 20 ± 10 µM.
With `CCCC(=O)CC(=O)N[C@@H]1CCSC1=O` [compound 61, 3-oxoC6-D-HCTL] the EC50 (RhlI [1]) was 1510 ± 110 µM and the “effect … (inhibition / activation)” value (RhlI [1]) was “activated”.
In the case of `CCCC(=O)O` [compound 75, butyric acid], the “effect … (inhibition / activation)” value (RhlI [1]) is reported as “None of these compounds or combinations had any effect on RhlI activity”.
Work on `CCCCCCCCCCCC(=O)N[C@H]1CCSC1=O` [compound 46, C12-L-HCTL] yielded an IC50 (RhlI [1]) of 387 ± 89 µM.
`CCCCCCCCSCCNC(=O)CCNC(=O)[C@H](O)C(C)(C)COP(=O)(O)OP(=O)(O)OC[C@H]1O[C@@H](n2cnc3c(N)ncnc32)[C@H](O)[C@@H]1OP(=O)(O)O` [compound 91, octyl-CoA] showed an IC50 (RhlI [2]) of 5.1 ± 0.8 µM.
In the case of `CCCCCCCCCCCC(=O)O` [compound 79, dodecanoic acid], the “effect … (inhibition / activation)” value (RhlI [1]) is reported as “None of these compounds or combinations had any effect on RhlI activity”.
With `CCCCCC(=O)CC(=O)N[C@@H]1CCOC1=O` [compound 35, 3-oxoC8-D-HSL] the IC50 (RhlI [1]) was 282 ± 34 µM.
In the case of `CCCCCCCCCC(=O)O` [compound 78, decanoic acid], the “effect … (inhibition / activation)” value (RhlI [1]) is reported as “None of these compounds or combinations had any effect on RhlI activity”.
With `CCCCSCCNC(=O)CCNC(=O)[C@H](O)C(C)(C)COP(=O)(O)OP(=O)(O)OC[C@H]1O[C@@H](n2cnc3c(N)ncnc32)[C@H](O)[C@@H]1OP(=O)(O)O` [compound 89, butyl-CoA] the “inhibition of RhlI” value (RhlI [2]; up to 1 mM) was “not inhibiting”.
In the case of `N[C@@H]1CCSC1=O` [compound 74, D-HCTL], the “effect … (inhibition / activation)” value (RhlI [1]) is reported as “None of these compounds or combinations had any effect on RhlI activity”.
Compound `CCCCCCSCCNC(=O)CCNC(=O)[C@H](O)C(C)(C)COP(=O)(O)OP(=O)(O)OC[C@H]1O[C@@H](n2cnc3c(N)ncnc32)[C@H](O)[C@@H]1OP(=O)(O)O` [compound 90, hexyl-CoA] has an IC50 (RhlI [2]) of 70 ± 10 µM.
With `CCCCCC(=O)O` [compound 76, hexanoic acid] the “effect … (inhibition / activation)” value (RhlI [1]) was “None of these compounds or combinations had any effect on RhlI activity”.
For `CCCCCC(=O)CC(=O)N[C@@H]1CCSC1=O` [compound 62, 3-oxoC8-D-HCTL], the EC50 (RhlI [1]) was 855 ± 74 µM and the “effect … (inhibition / activation)” value (RhlI [1]) was “activated”.
With `CCCCCCCC(=O)CC(=O)N[C@@H]1CCSC1=O` [compound 63, 3-oxoC10-D-HCTL] the EC50 (RhlI [1]) was 57 ± 23 µM and the “effect … (inhibition / activation)” value (RhlI [1]) was “activated”.
For `CCCCCCCCCC(=O)CC(=O)N[C@@H]1CCSC1=O` [compound 64, 3-oxoC12-D-HCTL], the IC50 (RhlI [1]) was 127 ± 70 µM and the “effect … (inhibition / activation)” value (RhlI [1]) was “inhibited”.
decanoyl-ACP [compound 83] showed a Km (RhlI [3]) of 0.14 ± 0.04 µM and a kcat (RhlI [3]) of 0.00633 ± 0.00017 s⁻¹.
In the case of octanoyl-ACP [compound 82], the “Km with untagged RhlI compared with MBP-tagged enzyme” value (tag-free RhlI) is reported as “almost identical”, the Km (RhlI [3]) is reported as 0.4 ± 0.06 µM and the kcat (RhlI [3]) is reported as 0.01 ± 0.00033 s⁻¹.
Compound `CCCC(=O)CC(=O)N[C@@H]1CCOC1=O` [compound 34, 3-oxoC6-D-HSL] has an EC50 (RhlI [1]) of 224 ± 55 µM.
With dodecanoyl-ACP [compound 84] the Km (RhlI [3]) was 0.26 ± 0.03 µM, the kcat (RhlI [3]) was 0.01 ± 0.00017 s⁻¹ and the Km (RhlI [3]; listed as C12-ACP) was about 0.2 µM.
For decyl-ACP [compound 88], the IC50 (RhlI [2]; [5]) was 0.1 ± 0.04 µM, the Ki (RhlI [2]; [5]) was 4.8 ± 0.3 µM and the inhibition mode (RhlI [2]) was “noncompetitive”.
With `N[C@H]1CCOC1=O` [compound 71, L-HSL] the “effect … (inhibition / activation)” value (RhlI [1]) was “None of these compounds or combinations had any effect on RhlI activity”.
In the case of `CCCC(=O)N[C@@H]1CCOC1=O` [compound 5, C4-D-HSL], the IC50 (RhlI [1]) is reported as 688 ± 91 µM and the “effect … (inhibition / activation)” value (RhlI [1]) is reported as “decreased the rate”.
In the case of “holo-ACP: holo acyl carrier protein, product of the RhlI reaction”, the “inhibition of RhlI” value (RhlI [4]) is given as “weak inhibitors”.
For butyryl-ACP [compound 80], the “Km with untagged RhlI compared with MBP-tagged enzyme” value (tag-free RhlI) was “almost identical”, the Km (RhlI [3]) was 7.3 ± 2.1 µM and the kcat (RhlI [3]) was 0.0433 ± 0.005 s⁻¹. It also gave a Km (RhlI [3]; listed as C4-ACP) of 7 µM.
In the case of `CCCC(=O)N[C@H]1CCOC1=O` [compound 1, N-butyryl-L-homoserine lactone], the “effect … (inhibition / activation)” value (RhlI [1]) is given as “did not inhibit” and the “inhibition of RhlI” value (RhlI [4]) is given as “no inhibition”.
`CCCCCCCCCC(=O)CC(=O)N[C@H]1CCSC1=O` [compound 55, 3-oxoC12-L-HCTL] showed an IC50 (RhlI [1]) of 621 ± 50 µM.
In the case of `CSC[C@H]1O[C@@H](n2cnc3c(N)ncnc32)[C@H](O)[C@@H]1O` [MTA], the “inhibition of RhlI” value (RhlI [4]) is listed as “weak inhibitors”.
